Data set [1] has as its system RPMI 8226. Nature of the data set: cells. Conditions: Homo sapiens, RPMI-8226, 72 h, read-out: IC50 (uM).
The subject of data set [2] is RPMI 8226. Nature of the data set: cells. Conditions: Homo sapiens, RPMI-8226, 72 h, read-out: IC50 (uM). This is another data set of the same source.
For data set [3], the system named is ABCG2. The experiment in a line: cells. Conditions: Homo sapiens, RPMI-8226, 72 h, read-out: IC50 (uM).
For data set [4], the system named is RPMI 8226. Nature of the data set: cells. Conditions: Homo sapiens, RPMI-8226, 72 h, read-out: IC50 (uM). This is another data set of the same source.
A further data set has as its system Jurkat. Nature of the data set: cells. Conditions: Homo sapiens, Jurkat, 72 h, read-out: IC50 (nM).
Another data set relates to U937. The experiment in a line: cells. Conditions: Homo sapiens, U-937, 72 h, read-out: IC50 (nM).
The next data set relates to NB4. The experiment in a line: cells. Conditions: Homo sapiens, NB-4, 72 h, read-out: IC50 (nM).
The next data set relates to A549. Nature of the data set: cells. Conditions: Homo sapiens, A549, 72 h, read-out: IC50 (nM).
A further data set concerns OCI-AML2. The experiment in a line: cells. Conditions: Homo sapiens, OCI-AML2, 72 h, read-out: IC50 (nM).
The subject of a further data set is OCI-M2. Nature of the data set: cells. Conditions: OCI-M2, 72 h, read-out: IC50 (nM).
The test system of another data set is K562. The experiment in a line: cells. Conditions: Homo sapiens, K562, 72 h, read-out: IC50 (nM).
A further data set deals with MV4-11. Nature of the data set: cells. Conditions: Homo sapiens, MV4-11, 72 h, read-out: IC50 (nM).
The test system of the next data set is HepG2. Nature of the data set: cells. Conditions: Homo sapiens, HepG2, 72 h, read-out: IC50 (nM).
The subject of the next data set is HEK293. Nature of the data set: cells. Conditions: Homo sapiens, HEK293, 72 h, read-out: IC50 (nM).
The test system of another data set is MCF7. The experiment in a line: cells. Conditions: Homo sapiens, MCF7, 72 h, read-out: IC50 (nM).
The test system of data set [5] is RPMI 8226. The experiment in a line: cells. Also noted: species or system KMS11. Conditions: Homo sapiens, RPMI-8226, 72 h, read-out: IC50 (nM), TAK-243 alone.
The subject of data set [6] is RPMI 8226. Nature of the data set: cells. Conditions: Homo sapiens, RPMI-8226, 72 h, read-out: IC50 (nM).
The subject of a further data set is MDAY-D2. The experiment in a line: cells. Conditions: Mus musculus, MDAY-D2, 72 h, read-out: IC50 (nM).
For a further data set, the system named is KMS11. Nature of the data set: cells. Also noted: species or system RPMI 8226. Conditions: Homo sapiens, KMS-11, 72 h, read-out: IC50 (nM).
The test system of data set [7] is RPMI 8226. Nature of the data set: cells. Conditions: Homo sapiens, RPMI-8226, 72 h, read-out: IC50 (nM), TAK-243 alone. On the set-up: species or system KMS11. The source holds these as a separate data set.
Data set [8] deals with T1, ABCG2 (Homo sapiens, UniProt Q9UNQ0).
T1 sequence (Q9UNQ0 1-655): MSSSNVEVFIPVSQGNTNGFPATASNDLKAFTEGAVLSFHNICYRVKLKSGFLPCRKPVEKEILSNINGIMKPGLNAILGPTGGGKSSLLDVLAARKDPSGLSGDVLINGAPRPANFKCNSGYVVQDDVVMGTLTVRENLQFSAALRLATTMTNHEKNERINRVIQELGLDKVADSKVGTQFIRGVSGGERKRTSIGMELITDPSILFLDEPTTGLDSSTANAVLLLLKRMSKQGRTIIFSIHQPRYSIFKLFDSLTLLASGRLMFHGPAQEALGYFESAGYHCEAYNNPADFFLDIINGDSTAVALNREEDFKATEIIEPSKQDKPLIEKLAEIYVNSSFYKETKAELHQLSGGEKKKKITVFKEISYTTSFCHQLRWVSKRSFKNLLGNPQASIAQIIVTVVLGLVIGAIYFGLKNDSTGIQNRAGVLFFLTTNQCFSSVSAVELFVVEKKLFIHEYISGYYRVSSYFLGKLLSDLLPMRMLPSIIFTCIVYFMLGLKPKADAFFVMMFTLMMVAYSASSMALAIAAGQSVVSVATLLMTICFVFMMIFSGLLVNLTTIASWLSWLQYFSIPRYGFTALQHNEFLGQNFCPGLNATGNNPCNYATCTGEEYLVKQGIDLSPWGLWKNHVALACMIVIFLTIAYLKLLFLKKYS
The experiment in a line: potentiation of TAK-243 cytotoxicity, Resazurin viability. Type of data set: cell-based. On the technique in general: Alamar Blue is a resazurin reagent that responds to reducing activity.

Read-outs that look alike come from different tables or passages of the source. Where only a bound is given, the exact number is not on record here.

Consider `O=C1c2c(O)ccc(O)c2C(=O)c2c(NCCNCCO)ccc(NCCNCCO)c21` [MTX, mitoxantrone], for which the IC50 (in general, the point on the concentration scale where inhibition reaches its midpoint) in the data set on RPMI 8226 [1] was 0.0786 µM.

On to `COc1ccccc1C(=O)Nc1cc2c(cc1N1CCCC1)n(C)c(=O)n2C` [PFI-4], for which the IC50 in the data set on RPMI 8226 [2] is more than 10 µM.

For the molecule `N#Cc1ccnc(N2C(=O)CC[C@H]2C(=O)N(c2cncc(F)c2)[C@H](C(=O)NC2CC(F)(F)C2)c2ccccc2Cl)c1` [Ivosidenib], the IC50 in the data set on ABCG2 [3] and with RPMI 8226 [4] was more than 10 µM in each case.

As to `NS(=O)(=O)OC[C@H]1C[C@@H](Nc2ccnc3cc(-c4cccc(SC(F)(F)F)c4)nn23)[C@H](O)[C@@H]1O` [TAK-243], the IC50 in the data set with Jurkat amounted to 12.2 nM; in the data set on U937, 17.9 nM; in the data set with NB4 it was 10.1 nM; in the data set with A549, 1290 nM; with OCI-AML2, 27.1 nM; in the data set with OCI-M2, 44 nM. For the same molecule, the IC50 worked out at 6.43 nM with K562; 19.4 nM in the data set on MV4-11; 60.1 nM with HepG2; 177 nM in the data set on HEK293; 404 nM in the data set on MCF7; 578 nM in the data set with RPMI 8226 [5]. Also, the IC50 in the data set with RPMI 8226 [6] worked out at 1370 nM; in the data set with MDAY-D2, 1230 nM; with KMS11, 685 nM; with RPMI 8226 [7] it was 558 nM.

In the case of `Clc1cc2c(NC3CCCC3)nnc(-c3ccncc3)c2cc1Cl` [A-196], the IC50 in the data set on RPMI 8226 [2] was more than 10 µM. Besides, the “apparent IC50” value at ABCG2 [8] was found to be 0.5218 µM.

Consider `NS(=O)(=O)OC[C@@H]1C[C@@H](n2ccc3c(N[C@H]4CCc5ccccc54)ncnc32)C[C@@H]1O` [Pevo, pevonedistat], for which the IC50 in the data set on RPMI 8226 [1] came to 0.997 µM.

In the case of `CCCc1cc(C)[nH]c(=O)c1CNC(=O)c1cc(-c2ccc(N3CCN(C(C)C)CC3)nc2)cc2c1cnn2C(C)C` [UNC1999], in the data set with RPMI 8226 [2], the IC50 was more than 10 µM.

As to `COc1c(C)cc(NC(=O)c2nn(Cc3ccc(F)cc3)c3c2CN(C(=O)c2ccc[nH]2)C[C@]3(C)C(N)=O)cc1C` [GSK-864], the IC50 in the data set on RPMI 8226 [2] is more than 10 µM.

For `CO[C@H]1CC[C@H](n2c([C@@H]3CCCC(=O)N3c3ccc(F)c(F)c3)nc3cc(-c4c(C)noc4C)ccc32)CC1` [Inobrodib], the IC50 in the data set on RPMI 8226 [4] turned out to be 7.62 µM.

With `COc1cc(-c2cn(C)c(=O)c3cnccc23)c(OC)cc1CN(C)C` [BI-9564], the IC50 with ABCG2 [3] and in the data set with RPMI 8226 [4] was more than 10 µM in each case.

In the case of `COc1ccc(CCc2nc3cc(-c4c(C)noc4C)ccc3n2C[C@H](C)N2CCOCC2)cc1Cl` [SGC-CBP30], the IC50 in the data set on RPMI 8226 [2] is more than 10 µM.

Source of the values: doi:10.1101/2022.04.14.488411v1 (biorxiv, 2022).
